In patent US8409550B2, “Method for treating skin with retinoids and retinoid boosters” (Unilever Home & Personal Care, USA, Division of Conopco, …, priority 2000, dated 2013):
“And” between values parts separate entries of the source, which are not always exact repeats. Equal values may be shown once. Read-outs that look alike come from different tables or passages of the source. Values belong to the compound of their own block, whether it stands above or below them.

Tests used:
[1] = test system: transglutaminase (TGase I); assay: Transglutaminase (Tgase) ELISA assay in cultured keratinocytes with retinol and boosters; assay type: cell-based, human; conditions: for TG as % C Compd 2 / TG as % C, Compd 3 / TG as % C Compd 1: concentration one log below IC20; for TG as % C, Compd 3: Compound 3 alone; for IC20: IC20 (80% of control); for Tgase levels (Mean): with 10^-7 M retinol
ARAT = assay: Assay for ARAT activity, bovine RPE microsomes (to identify B1); assay type: biochemical; conditions: for % Inhibition ARAT (100 jm): compound 100 jm; for % Inhibition ARAT (10 jm): compound 10 jm
[2] = Compound 2 alone, in the presence of 10^-7M retinol
[3] = in the presence of 10^-7M retinol
[4] = Compound 1 alone, in the presence of 10^-7M retinol
[5] = B1 table, booster concentration which with 10^−7 M retinol inhibits TGase by 50%, same values in the 19th table (Molar), read-out: Overall TG (IC 50)
[6] = compound tested individually in the presence of 10^-7 M retinol
[7] = Tgase inhibition, compound tested individually in the presence of 10^-7 M retinol, read-out: IC50

Compound: Dimethyl imidazolinone
TG as % C Compd 2 [1, 2]: 87 % C | TG as % C, Compd 3 [1, 3]: 87 % C

Compound: O=C1C[C@@H](c2ccc(O)cc2)Oc2cc(O)cc(O)c21 [Naringenin]
TG as % C, Compd 3 [1, 3]: 94 % C | TG as % C Compd 1 ([1]; compound 1 alone, with retinol): 95 % C | % Inhibition ARAT (100 jm) (ARAT): 33%

TG as % C Compd 2 [1, 2]: 90 % C | TG as % C, Compd 3 [1, 3]: 90 % C
Compound: O=C1CCc2ccccc2N1

Compound: CCN(CC)CC(=O)Nc1c(C)cccc1C [Lidocaine, reference compound]
% Inhibition ARAT (100 jm) (ARAT): 12%

Compound: CCCCC/C=C/C/C=C/CCCCCCCC(=O)NC(C)c1ccccc1 (centres unmarked) [Melinamide, reference compound]
% Inhibition ARAT (100 jm) (ARAT): 64% +/− 15

Compound: CC12CCC(C1)C(C)(C)C2O (centres unmarked) [Fenchyl Alcohol]
% Inhibition ARAT (100 jm) (ARAT): 12%

TG as % C Compd 1 [1, 4]: 68 % C
Compound: […]-Ionone

IC50 [1, 5]: 28 µM | TG as % C Compd 1 [1, 4]: 62 % C | IC20 [1, 6]: 10.8 µM | IC50 [1, 7]: 28 µM | TG as % C Compd 1 ([1]; compound 1 alone, with retinol, listed as Oleoyl beatine): 96 % C | TG as % C Compd 1 ([1]; compound 1 alone, with retinol, listed as Oleoyl betaine): 99.5 % C
Compound: Oleyl Betaine
% Inhibition ARAT (100 jm) (ARAT): 47%

TG as % C Compd 1 [1, 4]: 81 % C | Tgase levels (Mean) ([1]; booster 1.6E−04 Molar): 58.1 % of control | Tgase levels (Mean) ([1]; booster 1.78E−05 Molar): 104 % of control | Tgase levels (Mean) ([1]; booster 1.79E−9 Molar): 82 % of control | Tgase levels (Mean) ([1]; booster 1.98E−06 Molar): 110 % of control | Tgase levels (Mean) ([1]; booster 2.19E−09 Molar): 88.6 % of control | Tgase levels (Mean) ([1]; booster 4.39E−08 Molar): 127.3 % of control | Tgase levels (Mean) ([1]; booster 5.33E−05 Molar): 95.4 % of control | Tgase levels (Mean) ([1]; booster 5.93E−06 Molar): 129 % of control | Tgase levels (Mean) ([1]; booster 6.58E−07 Molar): 92.8 % of control | Tgase levels (Mean) ([1]; booster 8.78E−09 Molar): 119 % of control | TG as % C Compd 1 ([1]; compound 1 alone, with retinol): 123 % C and 95 % C and 106 % C
Compound: CCCCCCCC(=O)OC[C@H](COP(=O)(O)OCCN)OC(=O)CCCCCCC [1,2-dioctanoyl-sn-glycero-3-phosphoethanolamide]

Compound: CCCCCCCCCCCCCC(=O)N(C)CC(=O)O [Myristoyl Sarcosine]
% Inhibition ARAT (100 jm) (ARAT): 41% +/− 14

Compound: O=c1ccc2ccccc2o1 [Coumarin]
TG as % C, Compd 3 [1, 3]: 80 % C | TG as % C Compd 2 ([1]; compound 2 alone, with retinol): 96 % C

Compound: CC(C)=CCCC(C)CCO (centres unmarked) [Citronellol]
% Inhibition ARAT (100 jm) (ARAT): 30%

Compound: O=c1c2cccc3cccc(c32)c2nc3ccccc3n12 [7H-Benzimidazo[2,1-a]Benz[de]-isoquinolin-7-one]
TG as % C, Compd 3 [1, 3]: 94 % C | IC20 [1, 6]: 0.469 µM

Compound: CCCCCCCCCCC(O)C(=O)NCCO (centres unmarked) [Hydroxyethyl-2-Hydroxy-C12 Amide, N-Hydroxyethyl-2-hydroxydodecyl amide]
IC50 [1, 5]: 32.9 µM | IC20 [1, 6]: 24 µM | IC50 [1, 7]: 32.9 µM

TG as % C, Compd 3 [1, 3]: 88 % C
Compound: CC(=O)/C=C/C1C(C)=CCCC1(C)C (centres unmarked) [a-Ionone]

Compound: CCCCC/C=C\C/C=C\CCCCCCCC(=O)NCCCN(C)C [Linoleamidopropyl Dimethylamine]
% Inhibition ARAT (100 jm) (ARAT): 69% +/− 18

Compound: CC(C)=CCCC(C)=CCCC(C)=CCO [Farnesol]
TG as % C, Compd 3 [1, 3]: 118 % C | IC20 [1, 6]: 78.2 µM | TG as % C Compd 1 ([1]; compound 1 alone, with retinol): 98 % C | % Inhibition ARAT (10 jm) (ARAT): 23% +/− 18 | % Inhibition ARAT (100 jm) (ARAT): 53% +/− 18

Compound: CCCCCCCCCCCCCCCC(=O)O [Hexadecanoic acid]
TG as % C Compd 2 ([1]; compound 2 alone, with retinol): 95 % C

TG as % C, Compd 3 [1, 3]: 95 % C
Compound: CCCCCCCCCCCCCCCC(=O)NCCO [Palmitamide Monoethanolamide]

Compound: CCCCC/C=C\C/C=C\CCCCCCCC(=O)NCCO [Linoleoyl Monoethanolamide]
IC50 [1, 5]: 16.1 µM | IC20 [1, 6]: 14.8 µM | IC50 [1, 7]: 16.1 µM

IC50 [1, 5]: 32.5 µM | IC50 [1, 7]: 32.5 µM | TG as % C Compd 1 ([1]; compound 1 alone, with retinol): 110 % C | TG as % C Compd 1 ([1]; compound 1 alone, with retinol, listed as Caster oil MEA): 96 % C
Compound: Castor Oil MEA

Compound: CCCCC/C=C\C/C=C\C/C=C\C/C=C\CCCC(=O)[O-].[Na+] [Arachidonic Acid (Na+ salt)]
TG as % C, Compd 3 [1, 3]: 78 % C

Compound: COc1cc(NS(C)(=O)=O)ccc1Nc1c2ccccc2nc2ccccc12 [Amsacrine, reference compound]
TG as % C Compd 1 [1, 4]: 79 % C | TG as % C Compd 2 [1, 2]: 79 % C | IC20 [1, 6]: 3.3 µM | TG as % C Compd 1 ([1]; compound 1 alone, with retinol): 102 % C

TG as % C Compd 2 ([1]; compound 2 alone, with retinol): 112 % C
Compound: Dimethyl imidazoline

Compound: CC1=C(/C=C/C(C)=C/C=C/C(C)=C/CO)C(C)(C)CCC1 [retinol, All-trans-retinol, reference compound]
inhibition of transglutaminase production (maximal) ([1]; 1 μM retinoid, day 2, keratinocytes 4000 cells/well): 55%

Compound: CCCCCC(N)=O [Hexanoamide]
% Inhibition ARAT (100 jm) (ARAT): 20%

Compound: CC(C)=CCC/C(C)=C/CO [Geraniol]
TG as % C, Compd 3 [1, 3]: 105 % C | IC20 [1, 6]: 4720 µM | % Inhibition ARAT (10 jm) (ARAT): 13% | % Inhibition ARAT (100 jm) (ARAT): 32%

Compound: CC(/C=C/C=C(\C)C(=O)O)=C\C=C\C=C(C)\C=C\C=C(/C)C(=O)O [Crocetin]
TG as % C, Compd 3 [1, 3]: 90 % C | IC20 [1, 6]: 25.2 µM | % Inhibition ARAT (10 jm) (ARAT): 15% | % Inhibition ARAT (100 jm) (ARAT): 34%
